B1: 4Ig: four immunoglobulin-like domains of Neogenin, amino acids 1 to 383 of Accession No. AAC59662 (SEQ ID NO:1) (protein, listed as Gallus gallus)
chain: RSGPRSPLTGSVVRTFTPFYFLVEPMDILSVRGASVIMNCSSYCETPPKIEWKKDGTLLNLVSDDRRQLLPDGSLLINSVVHSKHNKPDEGYYQCVATVESLGSIVSRTAKLTVAGLPRFTSQPELSSVYKGNSAILNCEVNVDLAPFVRWEQDRQPLSLDDRVFKLPSGALLIGNATDTDGGFYRCVIESGGTPKYSEEAELKILPDPEEPQSLVFVRQPSSLTKVTGQNAVFPCVAGGFPTPYVRWTKNGEELITEDSERFALRAGGSLLISDVTEEDVGTYTCIADNENETIEAQAELAVQVPPEFLKRPANIYAHESMDIVFECEVTGKPTPTVKWVKNGDVVIPSDYFKIVKEHNLQVLGLVKSDEGFYQCIAENDVGNAQAGAQLIILDLDVAIPTLPPTSLTSATNDHLAPATTGPLPTAPRDVVATLVSTRFIRLTWRTPVSDPQGDNLTYSIFYTKEGINRERVENTSRPGETQVMIQNLMPETVYVFRVVAQNKHGHGESSAPLKVATQPEVQLPGPAPNIRAYAGSPTSVTVTWETPLSGNGEIQNYKLYYMEKGQDSEQDVDVAGLSYTITGLKKYTEYSFRVVAYNKHGPGVSTQDVVVRTLSDVPSAAPQNLTLEARNSKSIMLHWQPPPAGTHSGQITGYKIRYRKVSRKSDVTESVGGTQLFQLIEGLERGTEYNFRIAAMTVNGTGPATDWVSAETFESDLDESRVPEVPSSLHVRPLVTSIVVSWTPPENQNIVVRGYAIGYGIGSPHAQTIKVDYKQRYYTIENLDPSSHYVITLKAFNNVGEGIPLYESAVTRPHSDTSEVDLFVINAPYTPVPDPSPMMPPVGVQASILSHDTIRITWADNSLPKNQKITDARYYTVRWKTNIPANTKYKTANATTLSYLVTGLKPNTLYEFSVMVTKGRRSSTWSMTAHGTTFELVPTSPPKDVTVVSKEGKPRTIIVNWQPPSEANGKITGYIIYYSTDVNAEIHDWVIEPVVGNRLTHQIQELTLDTPYYFKIQARNSKGMGPMSEAVQFRTPKAESSDKMPNDQASGSAGKGSRPVDVGPDYKPPLSGSNSPHGSPTSPLDSNMLLVIIVSVGVITIVIVVIVAVFCTRRTTSHQKKKRAACKSVNGSHKYKGNSKDVKPPDLWIHHERLELKPIDKSPDPNPIMTDTPIPRNSQDITPVDNSMDSNIHQRRNSYRGHESEDSMSTLAGRRGMRPKMMMPFDSQPPQPVISAHPIHSLDNPHHHFHSGSLASPTRSYLHHQVSPWPVGTSMSHSDRANSTESVRNTPSSDTMPASSSQPCADHQDPDSSSGAYLGSAQEEDAAQSLPTAHVRPSHPLKSFAVPAVPAAGSAYDPTLPSTPLLTQQAPSHPVHSVKTASIGTLGRTRPPMPVVVPSAPDVQETTRMLEDSESSYEPDELTKEMAHLEGLMKDLNAITTA
modifications: Neogenin - Accession No. AAC59662

Legend:
[1] = test system: retinal ganglion cells (RGCs); experiment: Retinal organotypic cultures (whole mounts), propidium iodide cell death; assay type: cell-based; details: for reduction of cell death (relative PI intensity): agent in the medium
Experimental: (A) HEK293 cells that stably express RGMa (FIG. 11) were transfected with empty plasmid (Ctrl) or Neogenin (Neo). Neogenin induced cell death (arrows) when compared to control. (B) Quantification of cell death in Neogenin-transfected cells that were incubated in BSA (Neo+Ctrl), 4Ig (1 μg/ml), N-Raft (1 μg/ml), Noggin (100 nM), or MβCD (10 mM). […] Data were average±SEM (n=3 independent experiments), *p<0.0001. (C) Representative images and (D) Quantification of cell death in chick E5 tecta electroporated with GFP- and a Neogenin-expression plasmid and then injected with N-RGMa50-99 (Ctrl; 1 μg/ml), 4Ig (1 μg/ml), or N-Raft (1 μg/ml) and subjected to TUNEL assay. […] Data were an average±SEM from 3 different tecta/conditions (*p<0.001). Bar, 100 μm. (E) Representative images and (F) Quantification of retinal whole mounts incubated for 4 days with control peptide (1 μg/ml), 4Ig (1 μg/ml), N-Raft (1 μg/ml), or MβCD (10 mM) and dead cells were stained with Propidium Iodide (PI). Images from 9 whole mounts per condition from 3 independent experiments were taken at the same intensities and the fluorescence measured using ImageJ. […] Bar, 500 μm. (G) Fluorescence micrographs of flat-mounted retinas depicting Fluorogold-labeled retinal ganglion cells (RGCs) in injured retinas at 14 days following axotomy. Control retinas (Ctrl) had few surviving RGCs. 4Ig, N-raft or MβCD increased cell survival. Bar, 200 μm. (H) Representations of the retinal areas selected in our analyses. […] Data were average±SEM (n=6 eyes), *p<0.01.
For this study, retinal organotypic cultures were used, in which axotomy of retinal ganglion cells (RGCs) deprived the cells of tropic factors and induced apoptosis. Cell death was detected using propidium iodide (PI) and all images were taken at the same intensity with the RGC-layer in focus. Cell death was gauged by measuring the relative PI intensity of whole mounts.

[2] = test system: RGC axons in injured optic nerve; experiment: Optic nerve crush, RGC axon regeneration (GAP-43) and intraretinal integrity; assay type: in vivo, rat; details: for intraretinal integrity of RGC axons (CTB-FITC): after optic nerve crush
Experimental: All animals were female Sprague-Dawley rats weighing 250-300 g, which were kept in a pathogen free environment. […] Injections were performed using a 10-μl Hamilton syringe actuated by a computer controlled Picopump (World Precision Instruments). […] The needle was left in place for 10 min after each injection and slowly withdrawn to prevent reflux of the injected solutions up the needle tract.
Additionally, for crushing nerve surgical procedures, animals were placed in a stereotaxic frame and ventilated with isoflurane (2%; 0.8 L/min O2) through a gas anesthesia mask. […] The optic nerve was crushed using fine self-closing forceps for 6 seconds. Eventually, the orbital contents were gently returned to their original location and the initial incision was closed. Following surgery, under a heat lamp, animal were maintained at 37° C. in the normothermic condition and they were given Ketoprofen (5 mg/mL, dosage for rats: 0.1 mL/100 g bodyweight) and sterile saline to ease postsurgical recovery.
In order to evaluate the effects of 4Ig, N-Raft, and MβCD on RGC survival and regeneration after optic nerve crush, 4 μl intraocular injection of 4Ig (250 ng/μl) and N-Raft (150 ng/μl) solutions were delivered at 3 and 10 days after injury. Additionally, these two groups received 4Ig and N-Raft in a dose of 1 mg/kg, via intrajugular vein at 3 and 10 days postcrush. Separately, animals in MβCD group, received intraperitoneal injection of MβCD at 1000 mg/kg/week for 3 weeks after nerve crush on a once-a-day schedule.
Firstly, RGC axon regeneration and intraretinal integrity was examined at twenty-one days after optic nerve crush. […]. CTB-FITC was anterogradly transported within the axon to reach the synaptic membrane.
RGC axon regeneration was examined at twenty-one days after optic nerve crush. Animals were perfused with 4% paraformaldehyde via the ascending aorta, while the descending aorta was clamped off, and the optic nerves were removed. The nerves were post-fixed overnight in the same fixative solution, plus 30% sucrose in PBS for 7 days at […]. The fixed nerves were consecutively sectioned at 14 μm in thickness with a Leica CM1950 cryostat microtome. The slides were first incubated overnight at 4° C. in primary antisera directed against growth associated protein-43 (GAP-43), a marker of regenerating retinal ganglion cell axons in both neonatal and adult RGCs. Primary antisera (rabbit polyclonal, 1:250, Cell Signaling Technology/NEB) were diluted in PBS containing 0.3% Triton X-100 and 3% normal goat serum. Following primary antibody incubation, sections were rinsed three times for 15 minutes in PBS and followed by three hours incubation with FITC labeled secondary antibody at room temperature.
The slides were then rinsed three times for 15 minutes in PBS before cover slipping with 50:50 glycerol/PBS. The total number of regenerating axon growth cones within bins of the optic nerve, beginning anterior to the crush site and proceeding distally, were quantified. The bins were as follows: 0-250, 250-500, and >500 μm. A total of four equally spaced sections through the width of each optic nerve were examined and quantified using a Leica DM LFSA microscope (20× objective) with an Andor iXon 885+ camera, with EMgain applied.

Molecule | reduction of cell death (relative PI intensity) [1] | regeneration beyond the lesion site ([2]; 21 days after crush) | intraretinal integrity of RGC axons (CTB-FITC) [2] | enhancement of cell survival vs. control ([1]; perturbing lipid rafts) | average number of axons per section, 250-500 μm ([2]; IP injection) | average number of axons per section, greater than 500 μm ([2]; IP injection) | average number of axons per section, less than 250 μm ([2]; IP injection) | average number of axons per section higher than controls ([2]; IP injection, all distances) [fold] | increase in number of regenerating axons relative to controls ([2]; 21 days after crush) [fold] | number of regenerating axons, greater than 500 μm ([2]; 21 days after crush, controls 76±24) | number of regenerating axons, 250-500 μm ([2]; 21 days after crush, controls 108±12) | number of regenerating axons, less than 250 μm ([2]; 21 days after crush, controls 224±36)
N-Raft: peptide spanning amino acids 28-73 of RGMa (SEQ ID NO:2) (SPCKILKCNSEFWAATSGSHHLGAEETPEFCTALRAYAHCTRRTAR; N-Raft - amino acids 28-73 of RGMa) | about 40% | comparable to 4Ig | thicker axon bundles throughout the retina | – | – | – | – | – | – | – | – | –
methyl-β-cyclodextrin [MβCD, reference compound] | – | – | thicker axon bundles throughout the retina | about 50% | 10.7±0.9 | 8.4±1.4 | 23.7±1.2 | 7.1 | – | – | – | –
B1 | about 40% | – | thicker axon bundles throughout the retina | – | – | – | – | – | 5.7 | 410±64 | 640±128 | 1134±68

Source: US11497796B2, “Agents directed against a cis RGMa/neogenin interaction or lipid rafts and use of the same in methods of treatment” (UNIVERSITY HEALTH NETWORK, priority 2013, dated 2022)
